In assay [1] the target is T1, alpha-amylase from porcine pancreas (Sus scrofa, UniProt P00690).
T1 construct: alpha-amylase from porcine pancreas; purchased Sigma-Aldrich (Oakville, ON, Canada); host or cells: porcine pancreas
T1 sequence (P00690 16-511): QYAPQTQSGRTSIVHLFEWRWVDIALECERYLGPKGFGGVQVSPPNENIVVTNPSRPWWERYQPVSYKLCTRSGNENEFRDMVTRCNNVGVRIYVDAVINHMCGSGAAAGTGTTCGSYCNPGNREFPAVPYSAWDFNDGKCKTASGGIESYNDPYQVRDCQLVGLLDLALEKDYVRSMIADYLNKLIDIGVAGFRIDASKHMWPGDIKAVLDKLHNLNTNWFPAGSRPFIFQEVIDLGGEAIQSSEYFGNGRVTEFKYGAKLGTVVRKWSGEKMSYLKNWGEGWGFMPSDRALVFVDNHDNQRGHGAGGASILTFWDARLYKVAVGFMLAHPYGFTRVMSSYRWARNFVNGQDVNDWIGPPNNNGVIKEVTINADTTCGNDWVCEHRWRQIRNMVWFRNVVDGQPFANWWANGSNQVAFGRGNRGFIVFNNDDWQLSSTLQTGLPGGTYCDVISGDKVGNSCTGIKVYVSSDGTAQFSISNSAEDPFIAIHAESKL
The assay is described as follows: Alpha-amylase inhibition assay. Type of assay: biochemical. Particulars: pancreatic alpha-amylase; mean ± SD, triplicates.
Experimental: Plant extract screening for alpha-amylase inhibition was conducted using the previously described method [46], with some modifications. Except as otherwise indicated, solutions were prepared in 0.01 M potassium phosphate buffer containing sodium chloride (60 mM) and sodium azide (0.02% w/v), pH 6.8. […] After 10 min of incubation at 37 °C, 20 µL of the substrate 2-chloro-4-nitrophenyl-α-D-maltotrioside (5 mM) was added. The mixture was then incubated for 30 min at 37 °C for the reaction to take place. The reaction was terminated by adding 240 µL of trisodium phosphate solution of pH 11 (1% w/v) to stop enzyme activity. […] The positive control was a mixture of enzyme and substrate without inhibitors. Sample control containing sample and buffer was used to eliminate color interference. Buffer was used as blank. The percentage of the alpha-amylase inhibition was calculated as I% = [(Abs0 − Abs1)/Abs0] × 100, where A0 is the absorbance of the positive control subtracted from the blank, Abs 1 is the absorbance in the presence of the extract subtracted from sample control. The IC50 (half-maximal inhibitory concentration) was calculated graphically, using an analytical curve by plotting the concentration versus the inhibition percentage (I%).

Assay [2] has as its system high-fat diet-fed C57BL/6J mice. Details: method as in PMID 25832644. The conditions noted are these: PIC supplementation; cited from earlier work.
Another assay concerns the target alpha-glucosidase. Details: method as in PMID 31986026. Particulars: cited from earlier work.

Each structure is given as a SMILES string.

What is called IC50 is the midpoint of a concentration-inhibition curve.

Experimental for HOCl scavenging activity: Briefly, a freshly prepared HOCl solution, by adjusting the pH of a 1% solution of NaOCl to 6.2 with dropwise addition of diluted H2SO4, was diluted to 30 µM, using 100 mM phosphate buffer pH 7.4. […] QCT was used as means of comparison. Fluorescence assays were performed in a microplate reader (Infinite® 200 PRO, TECAN, Männedorf, Switzerland), at 37 °C, at wavelengths of 505 ± 10 nm and 530 ± 10 nm, for excitation and emission, respectively. The results were expressed as IC50 (μg/mL) of extract solution.

`Oc1cc(O)cc(/C=C/c2ccc(O)c(O)c2)c1` [PIC, 3,3′,4′,5-trans-tetrahydroxystilbene]: the half-maximal inhibitory concentration (IC50) in assay [1] is 350 µM; at alpha-glucosidase, 4.3 ± 0.07 µM. Moreover, the “Fasting blood glucose, high-fat diet-fed C57BL/6J mice” value in assay [2] is given as “reduced fasting blood glucose”. For the same molecule, in “HOCl scavenging activity”, the “HOCl IC50” value amounted to 1.2 ± 0.5 µg/mL.
